Experiments:
[1] = xn = mol fraction of the nth substance listed; conditions: 101 kPa, Liquid, Vibrating tube method
[2] = excess molar enthalpy (molar enthalpy of mixing); xn = mol fraction of the nth substance listed; conditions: 101 kPa, Liquid

OCC(F)(F)F [2,2,2-trifluoroethanol] + CCCCn1cc[n+](C)c1.F[B-](F)(F)F
Conditions | excess molar enthalpy [kcal/mol] | mass density [kg/m3]
[1], 283.15 K, x2 = 0 | – | 1408.2
[1], 283.15 K, x2 = 0.1032 | – | 1360.8
[1], 283.15 K, x2 = 0.2129 | – | 1322.2
[1], 283.15 K, x2 = 0.299 | – | 1299.8
[1], 283.15 K, x2 = 0.4022 | – | 1279.1
[1], 283.15 K, x2 = 0.5028 | – | 1262.9
[1], 283.15 K, x2 = 0.5808 | – | 1252.3
[1], 283.15 K, x2 = 0.6912 | – | 1239.6
[1], 283.15 K, x2 = 0.8062 | – | 1228.5
[1], 283.15 K, x2 = 0.8945 | – | 1221.2
[1], 293.15 K, x2 = 0 | – | 1391.1
[1], 293.15 K, x2 = 0.1032 | – | 1346.9
[1], 293.15 K, x2 = 0.2129 | – | 1310.1
[1], 293.15 K, x2 = 0.299 | – | 1288.8
[1], 293.15 K, x2 = 0.4022 | – | 1269
[1], 293.15 K, x2 = 0.5028 | – | 1253.4
[1], 293.15 K, x2 = 0.5808 | – | 1243.3
[1], 293.15 K, x2 = 0.6912 | – | 1231.2
[1], 293.15 K, x2 = 0.8062 | – | 1220.5
[1], 293.15 K, x2 = 0.8945 | – | 1213.3
[1], 303.15 K, x2 = 0 | – | 1373.8
[1], 303.15 K, x2 = 0.1032 | – | 1332.9
[1], 303.15 K, x2 = 0.2129 | – | 1298.1
[1], 303.15 K, x2 = 0.299 | – | 1277.9
[1], 303.15 K, x2 = 0.4022 | – | 1259.1
[1], 303.15 K, x2 = 0.5028 | – | 1244.3
[1], 303.15 K, x2 = 0.5808 | – | 1234.6
[1], 303.15 K, x2 = 0.6912 | – | 1223.1
[1], 303.15 K, x2 = 0.8062 | – | 1212.8
[1], 303.15 K, x2 = 0.8945 | – | 1205.8
[1], 313.15 K, x2 = 0 | – | 1356.1
[1], 313.15 K, x2 = 0.1032 | – | 1319
[1], 313.15 K, x2 = 0.2129 | – | 1286.1
[1], 313.15 K, x2 = 0.299 | – | 1267
[1], 313.15 K, x2 = 0.4022 | – | 1249.4
[1], 313.15 K, x2 = 0.5028 | – | 1235.2
[1], 313.15 K, x2 = 0.5808 | – | 1226
[1], 313.15 K, x2 = 0.6912 | – | 1215
[1], 313.15 K, x2 = 0.8062 | – | 1205.1
[1], 313.15 K, x2 = 0.8945 | – | 1198.3
[1], 323.15 K, x2 = 0 | – | 1338
[1], 323.15 K, x2 = 0.1032 | – | 1304.9
[1], 323.15 K, x2 = 0.2129 | – | 1274.3
[1], 323.15 K, x2 = 0.299 | – | 1256.4
[1], 323.15 K, x2 = 0.4022 | – | 1239.7
[1], 323.15 K, x2 = 0.5028 | – | 1226.4
[1], 323.15 K, x2 = 0.5808 | – | 1217.5
[1], 323.15 K, x2 = 0.6912 | – | 1207
[1], 323.15 K, x2 = 0.8062 | – | 1197.6
[1], 323.15 K, x2 = 0.8945 | – | 1190.9
[1], 333.15 K, x2 = 0 | – | 1319.1
[1], 333.15 K, x2 = 0.1032 | – | 1290.6
[1], 333.15 K, x2 = 0.2129 | – | 1262.4
[1], 333.15 K, x2 = 0.299 | – | 1245.8
[1], 333.15 K, x2 = 0.4022 | – | 1230
[1], 333.15 K, x2 = 0.5028 | – | 1217.4
[1], 333.15 K, x2 = 0.5808 | – | 1209
[1], 333.15 K, x2 = 0.6912 | – | 1199.1
[1], 333.15 K, x2 = 0.8062 | – | 1190.1
[1], 333.15 K, x2 = 0.8945 | – | 1183.6
[2], 298.15 K, x2 = 0.0878 | 0.174 | –
[2], 298.15 K, x2 = 0.1614 | 0.279 | –
[2], 298.15 K, x2 = 0.2042 | 0.305 | –
[2], 298.15 K, x2 = 0.2779 | 0.318 | –
[2], 298.15 K, x2 = 0.3392 | 0.302 | –
[2], 298.15 K, x2 = 0.3908 | 0.289 | –
[2], 298.15 K, x2 = 0.435 | 0.273 | –
[2], 298.15 K, x2 = 0.5065 | 0.238 | –
[2], 298.15 K, x2 = 0.6581 | 0.162 | –
[2], 298.15 K, x2 = 0.6919 | 0.145 | –
[2], 298.15 K, x2 = 0.7549 | 0.119 | –
[2], 298.15 K, x2 = 0.8089 | 0.0909 | –
[2], 298.15 K, x2 = 0.9059 | 0.0403 | –
[2], 323.15 K, x2 = 0.0459 | 0.0433 | –
[2], 323.15 K, x2 = 0.1137 | 0.113 | –
[2], 323.15 K, x2 = 0.2042 | 0.168 | –
[2], 323.15 K, x2 = 0.2779 | 0.179 | –
[2], 323.15 K, x2 = 0.3461 | 0.173 | –
[2], 323.15 K, x2 = 0.435 | 0.154 | –
[2], 323.15 K, x2 = 0.5359 | 0.128 | –
[2], 323.15 K, x2 = 0.6062 | 0.108 | –
[2], 323.15 K, x2 = 0.6978 | 0.079 | –
[2], 323.15 K, x2 = 0.822 | 0.0433 | –
[2], 323.15 K, x2 = 0.885 | 0.0286 | –

— the NIST ThermoML archive (doi:10.1021/je100693c)
